For test [1], the system named is intragastric pressure. The experiment in a line: Increase in intragastric pressure in the rat. Also on record: III(a) Increase in Intragastric Pressure Dose (minimum dose for activity): unit not given here. The class given is in vivo. As to conditions: s.c., 40 minute period after administration; for minimal effective dose: sc, 40 min, read-out: III(a) Increase in Intragastric Pressure Dose (minimum dose for activity). The protocol:
(a) Increase in intragastric pressure in the rat
Intragastric pressure changes were recorded from previously starved conscious but restrained rats using a saline filled catheter inserted into the lumen of the stomach via a permanent gastric fistula. The catheter was connected to a physiological pressure transducer and pressure changes recorded on a hot wire pen recorder. In each animal a pre-dose period of 40 minutes was allowed to obtain a measure of spontaneous activity. An index of activity was obtained by measuring the average height of pressure waves during 10 minute periods. Values for 4 such periods were obtained during assessment of spontaneous activity and for the 40 minute period after the subcutaneous administration of the compounds. Students `t` test was applied to the difference in average values obtained for spontaneous and post-compound activity.

The subject of test [2] is vomiting response. Nature of the test: Anti-emetic activity in the dog (apomorphine induced vomiting). The format is in vivo. Set-up: key to II Anti-Emetic Activity Dose, slight activity (footnote *): *: slight at 5 × 10^-4. The conditions noted are these: for ED100: complete inhibition, read-out: II Anti-Emetic Activity Dose, Complete Inhibition. As to the method: II. Anti-emetic activity in the dog
Compounds were administered subcutaneously 30 minutes prior to administration of a standard dose of apomorphine HCl (0.1 mg/kg subcutaneously) and the vomiting response compared to that obtained when the same animals were dosed with apomorphine HCl and vehicle only.

Test [3] relates to gastric emptying. Nature of the test: Increase in gastric emptying: reversal of apomorphine induced delay in gastric emptying in the rat. The format is in vivo. As to conditions: 10 mg/kg s.c.; for III(b) Increase in Gastric Emptying: apomorphine HCl 5 mg/kg s.c. induced delay. Set-up: key to III(b) Increase in Gastric Emptying: IA: inactive at the dose in the brackets, mg/Kg s.c. As to the method: (b) Increase in gastric emptying: reversal of apomorphine induced delay in gastric emptying in the rat
Rats equipped with chromic gastric fistulae were used and it was through this that 5 ml of a test meal (5 ml phosphate buffer at pH 9) was administered and recovered. The % recovery of the standard meal after remaining in the stomach for 10 minutes was taken as an index of gastric emptying. Delay in gastric emptying was induced by the administration of apomorphine HCl (5 mg/kg subcutaneously) which was given 15 minutes prior to the subcutaneous administration of the compound. The % recoveries of the test meal were determined at 15-25 and 45-55 minutes post-dosing with the compound and compared with vehicle only dosed animals set up simultaneously. Six animals were used for each group.

Test [4] concerns Dopamine Receptor. The experiment in a line: Inhibition of apomorphine induced climbing in the mouse. The class given is in vivo. As to conditions: p.o., apomorphine 1 mg/kg s.c. As to the method:
(§1) I. Dopamine Receptor Blocking Activity in the Central Nervous System
(b) Inhibition of apomorphine induced climbing in the mouse
The test is based on that described by Protais, P., Constantin, J. and Schwartz J.C. (1976), Psychopharmacology, 50, 1-6.
Apomorphine 1 mg/kg s.c. induces mice to climb the wall of a wire cage (inverted food hopper--11×7.5×18 cm high). Mice acclimatised in their home cages in groups of 5 are placed under the hoppers immediately after the injection of apomorphine 1 mg/kg s.c. At 10,20 and 30 minutes after injection climbing behaviour is scored. The mice are observed for 30 seconds and scored according to the position they spend the majority of time in, score 0--four paws on floor of cage; score 1--fore paws only on walls; score 2--all paws on wall of cage. The scores at all 3 times and for each mouse are summed and mice drug treated orally compared to mice receiving apomorphine only. A saline only treated group is also included and any score, generally <5% of maximum taken into account.

The target in test [5] is T1, dopamine receptor (Rattus norvegicus, UniProt P61169).
T1 construct: the caudate nucleus is quickly dissected out; from tissue; host or cells: caudate nucleus of male Hooded Lister rats, homogenate
Nature of the test: In vitro displacement of radiolabelled spiroperidol from dopamine receptor membranes. The class given is binding, rat (Male Hooded Lister). The conditions noted are these: for inhibition at 10 µM: 0.25 h, 10^-5 M compound, read-out: I(c) Spiroperidol Displacement % at 10^-5 M. The protocol: (c) In vitro displacement of radiolabelled spiroperidol from dopamine receptor membranes
Therefore a compound which displaces this ligand from dopamine receptor membranes may have neuroleptic properties.
Male Hooded Lister rats (200-300 g) are decapitated and the caudate nucleus is quickly dissected out. This is homogenised in ice cold Tris buffer (pH 7.7 at 25° C.) at a concentration of 10 mg/ml wet weight of tissue. The test compound (at 10^-5 M) or spiroperidol (standard curve from 10^-5 to 10^-9 M) is added to the assay tubes followed by 0.5 nM [^3 H]-spiroperidol. This is mixed with 500 μl of the membrane preparation and the assay tubes are incubated for 15 minutes at 37° C. After this period 4 ml ice cold Tris buffer is added to each tube and the solutions are filtered through per-soaked glass fibre filters. The filter is washed twice with 4 ml of the buffer and then transferred to a scintillation vial for counting. Single concentration results are given as a percentage of [^3 H]-spiroperidol displaced.

For test [6], the system named is Dopamine Receptor. Nature of the test: Inhibition of apomorphine induced stereotype behaviour in the rat. Also on record: key to I(a) Dose Inhibiting Stereotype Behaviour (slight inhibition, footnote *): *: slight at 0.05; key to I(a) Dose Inhibiting Stereotype Behaviour (slight inhibition, footnote +): +: slight at 1. The conditions noted are these: s.c.; for I(a) Dose Inhibiting Stereotype Behaviour (dose for complete inhibition): apomorphine induced, IA(x) = inactive at dose in brackets. The format is in vivo.
Text: as §1
(a) Inhibition of apomorphine induced stereotype behaviour in the rat
(method of Ernst (1967), Psychopharmacologia (Berl.) 10 316-323).

The mark [7] stands for this setting: Canis lupus familiaris, s.c., 30 min before apomorphine HCl 0.1 mg/kg s.c.
Setting [8] is: 0.5 nM [3H]-spiroperidol, rat caudate nucleus membranes, read-out: I(c) Spiroperidol Displacement ED50 (concentration for 50% displacement).
The mark [9] stands for this setting: 0.5 nM [3H]-spiroperidol, rat caudate nucleus membranes.

Where two headings read alike, the source gives them in different places.

For orientation: ED50 means the midpoint of the dose-response relation.

T1 sequence (P61169 whole entry): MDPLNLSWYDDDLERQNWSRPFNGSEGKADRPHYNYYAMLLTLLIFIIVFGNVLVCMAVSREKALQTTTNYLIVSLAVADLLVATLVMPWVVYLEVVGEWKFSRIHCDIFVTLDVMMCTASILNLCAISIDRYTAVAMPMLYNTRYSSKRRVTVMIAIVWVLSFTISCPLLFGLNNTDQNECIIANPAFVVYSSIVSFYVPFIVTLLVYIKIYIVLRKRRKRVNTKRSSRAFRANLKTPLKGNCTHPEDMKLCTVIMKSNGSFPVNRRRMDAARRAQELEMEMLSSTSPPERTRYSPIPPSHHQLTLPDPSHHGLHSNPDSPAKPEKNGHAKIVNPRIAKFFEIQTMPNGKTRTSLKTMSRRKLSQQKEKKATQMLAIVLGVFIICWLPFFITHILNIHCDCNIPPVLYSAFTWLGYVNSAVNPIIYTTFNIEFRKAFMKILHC

As for `COc1cc(N)c(Cl)cc1C(=O)N[C@@H]1C[C@H]2CC[C@@H](C1)N2CC1CCCCC1` [Compound 30, 4-amino-5-chloro-2-methoxy-N-(3'β-[8'-cyclohexylmethyl-8'-azabicyclo-[3.2.1]-octyl])-benzamide], the “III(a) Increase in Intragastric Pressure Dose (minimum dose for activity)” value (shortened to “III(a) Increase”) in test [1] is reported as “IA(1)”. Besides, the “II Anti-Emetic Activity Dose, slight activity (footnote *)” value in test [2] (s.c., slight at 5 × 10^-4) was “*”. Also, the “III(b) Increase in Gastric Emptying” value in test [3] turned out to be 0.05%. For the same compound, the “I(b) Anti-Climbing Activity Dose, Complete Inhibition” value in test [4] came to 5 mg/kg. Moreover, in test [5], the IC50 is 20 nM. The “I(a) Dose Inhibiting Stereotype Behaviour (slight inhibition, footnote *)” value in test [6] (slight at 0.05) is “*”.
Regarding `COc1cc(N)c(Cl)cc1C(=O)N[C@@H]1C[C@H]2CC[C@@H](C1)N2CCc1ccccc1` [Compound 18, 4amino-5-chloro-2-methoxy-N-(3β-[8'-β-phenethyl]-['-azabicyclo[3.2.1]octyl])-benzamide], the “III(a) Increase” value in test [1] is reported as “IA(5)”. Further, the ED100 in test [2] (setting [7]) is 0.25 mg/kg. For the same compound, in test [4], the “I(b) Anti-Climbing Activity Dose, Complete Inhibition” value was “IA (inactive at 10 mg/Kg p.o.)”. Also, in test [5] (setting [8]), the IC50 was determined as 600 nM. In test [6], the “I(a) Dose Inhibiting Stereotype Behaviour (dose for complete inhibition)” value is “IA(50)”.
With `CCCCN1[C@@H]2CC[C@H]1C[C@H](NC(=O)c1cc(Cl)c(N)cc1OC)C2` [Compound 26, 4-amino-5-chloro-2-methoxy-N-(3'β-[8'-n-butyl-8'-azabicyclo[3.2.1]-octyl])benzamide], in test [2] (setting [7]), the ED100 came to 0.4 mg/kg. Besides, in test [3], the “III(b) Increase in Gastric Emptying” value came to 1%. Also, the “I(b) Anti-Climbing Activity Dose, ED50” value in test [4] stood at 2.9 mg/kg. Also, the IC50 in test [5] (setting [8]) stood at 400 nM. In addition, the “I(a) Dose Inhibiting Stereotype Behaviour (slight inhibition, footnote +)” value in test [6] (slight at 1) was “+”.
Regarding `CCCN1[C@@H]2CC[C@H]1C[C@H](NC(=O)c1cc(Cl)c(N)cc1OC)C2` [Compound 24, 4-amino-5-chloro-2-methoxy-N-(3'β-[8'-n-propyl-8'-azabicyclo[3.2.1]-octyl])benzamide], in test [1], the minimal effective dose was 5 to 10 mg/kg. Besides, in test [2] (setting [7]), the ED100 is 0.4 mg/kg. In addition, in test [3], the “III(b) Increase in Gastric Emptying” value is listed as “IA(25)”. Besides, in test [4], the “I(b) Anti-Climbing Activity Dose, Complete Inhibition” value was “IA (inactive at 10 mg/Kg p.o.)”. Moreover, the “I(a) Dose Inhibiting Stereotype Behaviour (dose for complete inhibition)” value in test [6] is “IA(25)”.
Consider `COc1cc(N)c(Cl)cc1C(=O)N[C@@H]1C[C@H]2CC[C@@H](C1)N2C(C)C` [Compound 25, 4-amino-5-chloro-2-methoxy-N-(3'β-[8'-iso-propyl-8'-azabicyclo[3.2.1]-octyl])benzamide], for which, in test [1], the minimal effective dose is 5 mg/kg. Further, in test [2] (Canis lupus familiaris, sc, 30 min before apomorphine HCl 0.1 mg/kg s.c., ED50, read-out: II Anti-Emetic Activity Dose, ED50), the ED50 turned out to be 0.8 mg/kg. Further, the “III(b) Increase in Gastric Emptying” value in test [3] is listed as “IA”. Further, the “I(b) Anti-Climbing Activity Dose, Complete Inhibition” value in test [4] was “IA (inactive at 10 mg/Kg p.o.)”. Besides, the “I(a) Dose Inhibiting Stereotype Behaviour (dose for complete inhibition)” value in test [6] is “IA(25)”.
Turning to `COc1cc(N)c(Cl)cc1C(=O)N[C@@H]1C[C@H]2CCC[C@@H](C1)N2Cc1ccccc1` [Compound 12, 4-amino-5-chloro-2-methoxy-N-(3'β-[9'-benzyl-9'-azabicyclo-[3.3.1]-nonyl])-benzamide], in test [1], the “III(a) Increase” value is recorded as “IA(1)”. Also, the ED100 in test [2] (setting [7]) turned out to be 0.1 mg/kg. Further, in test [4], the “I(b) Anti-Climbing Activity Dose, Complete Inhibition” value is recorded as 2 mg/kg. The inhibition at 10 µM in test [5] (setting [9]) amounted to 53%. Moreover, the “I(a) Dose Inhibiting Stereotype Behaviour (dose for complete inhibition)” value in test [6] was 0.5 mg/kg.
`COc1cc(N)c(Cl)cc1C(=O)N[C@@H]1C[C@H]2CCC[C@@H](C1)N2C` [Compound 22, 4-amino-5-chloro-2-methoxy-N-(3'β-[9'-methyl-9'-azabicyclo[3.3.1]-nonyl])-benzamide]: the minimal effective dose in test [1] worked out at 1 mg/kg. In addition, the “III(b) Increase in Gastric Emptying” value in test [3] is reported as “IA(25)”. The “I(b) Anti-Climbing Activity Dose, Complete Inhibition” value in test [4] is “IA (inactive at 10 mg/Kg p.o.)”. For the same compound, in test [6], the “I(a) Dose Inhibiting Stereotype Behaviour (dose for complete inhibition)” value was “IA(25)”.
Take `COc1cc(N)c(Cl)cc1C(=O)N[C@@H]1C[C@H]2CC[C@@H](C1)N2Cc1ccc(C)cc1` [Compound 13, 4amino-5chloro-2-methoxy-N-(3β-[8'[4"methylbenzyl]-8'-azabicyclo[3.2.1]octyl])-benzamide]: in test [2] (setting [7]), the ED100 was 0.1 mg/kg. Moreover, the “I(b) Anti-Climbing Activity Dose, ED50” value in test [4] was found to be 0.12 mg/kg. In addition, the inhibition at 10 µM in test [5] (setting [9]) stood at 54%.
For the compound `COc1cc(N)c(Cl)cc1C(=O)NC1CC2CCC(C1)N2Cc1ccccc1` (stereo not drawn) [Compound 2, 4-amino-5-chloro-2-methoxy-N-(3'α, 8-[8'-benzyl]8-azabicyclo[3,2,1]octyl)benzamide], the ED100 in test [2] (setting [7]) amounted to 0.0025 mg/kg. Further, the “% Recovery of test meal, mean ± S.E. of mean, 15-25 mins.” value in test [3] (15-25 mins post dosing, apomorphine, printed with **, apomorphine + vehicle 72.4 ± 5.1) was 37.4 ± 6.7%. In addition, in test [3] (45-55 mins post dosing, apomorphine, printed with ***, apomorphine + vehicle 60.7 ± 7.3), the “% Recovery of test meal, mean ± S.E. of mean, 45-55 mins.” value was determined as 18.3 ± 1.1%. The “I(a) Dose Inhibiting Stereotype Behaviour (dose for complete inhibition)” value in test [6] was 10 mg/kg.
Turning to `COc1cc(N)c(Cl)cc1C(=O)N(C)[C@H]1C[C@H]2CC[C@@H](C1)N2Cc1ccccc1` [Compound 6, 4-Amino-5-chloro-2-methoxy-N-methyl-N-(3'α-[8'-benzyl-8'-azabicyclo[3.2.1]octyl])benzamide], the minimal effective dose in test [1] was found to be 10 mg/kg. Further, in test [3], the “III(b) Increase in Gastric Emptying” value is reported as “IA(50)”. For the same compound, the “I(b) Anti-Climbing Activity Dose, Complete Inhibition” value in test [4] was “IA (inactive at 10 mg/Kg p.o.)”. Besides, the “I(a) Dose Inhibiting Stereotype Behaviour (dose for complete inhibition)” value in test [6] was “IA(50)”.
For `CCN1[C@@H]2CC[C@H]1C[C@H](NC(=O)c1cc(Cl)c(N)cc1OC)C2` [Compound 23, 4-amino-5-chloro-2-methoxy-N-(3'β-[8'-ethyl-8'-azabicyclo[3.2.1]octyl])benzamide], the minimal effective dose in test [1] lay in the range of 1 to 10 mg/kg. The ED100 in test [2] (setting [7]) turned out to be 1.6 mg/kg. Further, the “III(b) Increase in Gastric Emptying” value in test [3] is listed as 25%. Besides, the “I(b) Anti-Climbing Activity Dose, Complete Inhibition” value in test [4] is “IA (inactive at 10 mg/Kg p.o.)”. The “I(a) Dose Inhibiting Stereotype Behaviour (dose for complete inhibition)” value in test [6] was “IA(25)”.
For `COc1cc(N)c(Cl)cc1C(=O)N[C@H]1C[C@H]2CCC[C@@H](C1)N2C` [Compound 21, 4-amino-5-chloro-2-methoxy-N-(3'α-[9'-methyl-9'-azabicyclo[3.3.1]nonyl])benzamide], in test [1], the minimal effective dose came to 5 mg/kg. The “I(b) Anti-Climbing Activity Dose, Complete Inhibition” value in test [4] is 10 mg/kg. The “I(a) Dose Inhibiting Stereotype Behaviour (dose for complete inhibition)” value in test [6] is “IA(50)”.
